Reference: patent publication US6126909A, “Process and apparatus for the production of BI-212 and a use thereof” (Arch Development Corporation, priority 1999, dated 2000)

Tests used:
V-79 cells = assay: In vitro irradiation survival (clonogenic), monolayer; format: cell-based, Chinese hamster; settings: V-79 monolayer
Procedure: (§1) In vitro studies were carried out using three well known cell lines, the cells from which were exposed to radiation from: (1) an X-ray source; (2) P-32 chromic phosphate; and (3) Bi-212 chloride. The three cell lines that were used are V-79, which is a Chinese hamster lung fibroblast, Ehrlich-Lettre Ascites carcinoma (ATCC CCL 77), which is an ascites producing -tumor, and NIH:OVCAR-3 (ATCC HTB 161), which is a human ovarian adenocarcinoma. These well known cell lines are predictive of what happens in vivo. The cells were grown as monolayers and into spheroid formations and subsequently irradiated, as described herein.
The V-79 cells were maintained under exponential growth conditions in minimal essential medium (MEM) supplemented with 10 percent fetal bovine serum. The Ehrlich-Lettre Ascites carcinoma cells were maintained in 90 percent NCTC 109 supplemented with 10 percent fetal bovine serum. The NIH:OVCAR-3 cells were maintained in RPMI 1640 and 10 percent fetal bovine serum.
Cells from each of the cell lines were irradiated by subjecting the cells to X-ray radiation, P-32, and Bi-212. The X-ray source that was used is a General Electric 250 kvp Maxitron, 26 […] (mA) (HVL 1.5 mm Cu) operated at a dose rate of 1.11 Greys per minute (Gy/min). The cells, in both monolayer and spheroid form were exposed at room temperature and then immediately plated for survival.
Cells in both monolayer and spheroid were exposed to P-32 chromic phosphate. The radiation dose to each sample was calculated as: […]
After exposure, the cells were washed in phosphate-buffered saline (PBS) and immediately plated for survival.
The cell lines were also irradiated using Bi-212. Bismuth-212 was eluted from a generator as described in the aforementioned patent to Atcher et al., which was a cation-exchange column supporting Ra-224, with 1 ml of 0.15 N HI, and the generator was purged with 2 ml of distilled deionized water. […] The filter was purged with 1 ml of distilled deionized water, and the radioactivity was assayed using a calibrated 3×3-in. […]
(§2) Cells were exposed over a period of four hours. The dose (D) per microCurie was calculated and corrected for decay as follows: [formula] where V=volume in milliliters, and […]
(§3) Following plating, survival measurements were taken for each of the irradiated cell samples. […] The plates were then stained with crystal violet and colonies greater than 50 cells were scored. The surviving fraction was then determined.
Intrinsic radiosensitivity (Do) was calculated from the survival curves. […] Relative biological effectiveness (RBE) was determined as the ratio of the absorbed dose of X-ray to that of alpha radiation to produce the same degree of biological effect.

[1] = system: Ehrlich-Lettre Ascites carcinoma cells; assay: as above; format: cell-based; settings: dose increment reducing survival to 37 percent
Procedure: as §1, with “herein. […]” for “herein.”
The cell lines were also irradiated using Bi-212. […] The filter was purged with 1 ml of distilled deionized water, and the radioactivity was assayed using a calibrated 3×3-in. […]
as §2, §3
Intrinsic radiosensitivity (Do) was calculated from the survival curves. […]

[2] = Solubility of Bi-212 at various pH values (0.22 μ filter); format: physicochemical
Procedure: The solubility was measured by passing the solution through a 0.22 μ Nalgene® filter and measuring the activity of the resulting solution and the activity of the filter.

[3] = Toxicity studies, intraperitoneal graded doses; format: in vivo, rabbit
Procedure: In vivo studies were conducted to determine the distribution of Bi-212 produced using the above-noted process and to compare the Bi-212 distribution to the distribution of Pb-212 ferrous hydroxide in colloidal form. The in vivo studies were conducted using white, female New Zealand rabbits weighing about 4.5 kilograms ([…]) each. Studies were also conducted using rabbits to determine the toxicity levels, e.g., the maximum tolerated dose. Efficacy studies were conducted using 25 gram (gm) female Swiss-Webster mice inoculated with Ehrlich-Lettre Ascites carcinoma cells.
The peritoneal cavities of rabbits were instilled with graded doses of Bi-212. The rabbits were followed until death or for up to three months after their blood counts normalized. The rabbits were necropsied at death or termination of the study and their organs were microscopically examined to determine the effect of the Bi-212 on healthy organs.

SMILES: [212Bi] [Bi-212, bismuth-212]
- D0 (intrinsic radiosensitivity) (V-79 cells; dose increment reducing survival to 37 percent): 0.77 Gy
- Relative biological effectiveness (RBE) (V-79 cells; relative to X-ray): 3.02
- D0 (intrinsic radiosensitivity) [1]: 0.65 Gy
- Maintained in solution ([2]; acidic pH): maintained in solution at an acidic pH value
- Activity in solution ([2]; pH 6): 5.55 mCi
- Activity on filter ([2]; pH 6): 0.24 mCi
- Percent activity in solution ([2]; pH 6): 96%
- Percent activity on filter ([2]; pH 6): 4%
- Activity in solution ([2]; pH 7): 3.24 mCi
- Activity on filter ([2]; pH 7): 0.023 mCi
- Percent activity in solution ([2]; pH 7): 94%
- Percent activity on filter ([2]; pH 7): 6%
- Activity in solution ([2]; pH 8): 1.90 mCi
- Activity on filter ([2]; pH 8): 0.50 mCi
- Percent activity in solution ([2]; pH 8): 83%
- Percent activity on filter ([2]; pH 8): 17%
- Activity in solution ([2]; pH 9): 0.65 mCi
- Activity on filter ([2]; pH 9): 1.35 mCi
- Percent activity in solution ([2]; pH 9): 32%
- Percent activity on filter ([2]; pH 9): 68%
- Solubility dependence on pH ([2]; radio-impurity-free solution): solubility increasing with a decrease in pH value
- Microscopic examination of organs ([3]; 60 mCi, three months after instillation): only mild blunting of intestinal villi
- Histology, small and large intestines ([3]; 80 mCi): marked individual cell necrosis of gland epithelium of the small and large intestines
- Survival ([3]; 80 mCi): survived about three days
- Histology ([3]; 100 mCi): diffuse epithelial necrosis
- Survival ([3]; 100 mCi): survived about three days
- Mortality ([3]; doses greater than 60 mCi): death within three days
- Maximum dose tolerated ([3]; rabbits, intraperitoneal): 60 mCi
